# Experimental data taken from the supplement of paper PMC10307832.
# Legend:
# Assay in all cases: relative viability (nuclei count vs DMSO), 5 days (fraction); higher = more cells survive
# Neratinib + Pemetrexed = compound: CCOc1cc2ncc(C#N)c(Nc3ccc(OCc4ccccn4)c(Cl)c3)c2cc1NC(=O)/C=C/CN(C)C [Neratinib] + Nc1nc2[nH]cc(CCc3ccc(C(=O)N[C@@H](CCC(=O)O)C(=O)O)cc3)c2c(=O)[nH]1 [Pemetrexed] (partner 0.2 µM)
# Procedure, shortened: (§1)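 For relative viability, nuclei counts in treated wells were divided by those in vehicle wells. Lung cancer cell lines had been pin-tool dosed in 1536-well plates the day after seeding and cultured for 5 days, then fixed and stained in one step (final 0.05% Triton X-100, 1% formaldehyde, 1 ug/ml Hoechst) and imaged at 4×. Doses were one drug alone or a fixed anchor-drug dose plus five library-drug doses (not always all listed) in √10 steps, and values are duplicate-plate medians.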
# Neratinib + Vorinostat = compound: CCOc1cc2ncc(C#N)c(Nc3ccc(OCc4ccccn4)c(Cl)c3)c2cc1NC(=O)/C=C/CN(C)C [Neratinib] + O=C(CCCCCCC(=O)Nc1ccccc1)NO [Vorinostat] (partner 1 µM)
# Procedure, shortened: as §1
# Neratinib + Olaparib = compound: CCOc1cc2ncc(C#N)c(Nc3ccc(OCc4ccccn4)c(Cl)c3)c2cc1NC(=O)/C=C/CN(C)C [Neratinib] + O=C(c1cc(Cc2n[nH]c(=O)c3ccccc23)ccc1F)N1CCN(C(=O)C2CC2)CC1 [Olaparib] (partner 8 µM)
# Procedure, shortened: as §1
# Neratinib + Linsitinib = compound: CCOc1cc2ncc(C#N)c(Nc3ccc(OCc4ccccn4)c(Cl)c3)c2cc1NC(=O)/C=C/CN(C)C [Neratinib] + C[C@]1(O)C[C@@H](c2nc(-c3ccc4ccc(-c5ccccc5)nc4c3)c3c(N)nccn32)C1 [Linsitinib] (partner 1 µM)
# Procedure, shortened: as §1
Cell Line,relative viability (Neratinib + Pemetrexed; first compound 0.01 µM),relative viability (Neratinib + Pemetrexed; first compound 0.03162 µM),relative viability (Neratinib + Pemetrexed; first compound 0.1 µM),relative viability (Neratinib + Pemetrexed; first compound 0.3162 µM),relative viability (Neratinib + Pemetrexed; first compound 1 µM),relative viability (Neratinib + Vorinostat; first compound 0.01 µM),relative viability (Neratinib + Vorinostat; first compound 0.03162 µM),relative viability (Neratinib + Vorinostat; first compound 0.1 µM),relative viability (Neratinib + Vorinostat; first compound 0.3162 µM),relative viability (Neratinib + Vorinostat; first compound 1 µM),relative viability (Neratinib + Olaparib; first compound 0.01 µM),relative viability (Neratinib + Olaparib; first compound 0.03162 µM),relative viability (Neratinib + Olaparib; first compound 0.1 µM),relative viability (Neratinib + Olaparib; first compound 0.3162 µM),relative viability (Neratinib + Olaparib; first compound 1 µM),relative viability (Neratinib + Linsitinib; first compound 0.01 µM),relative viability (Neratinib + Linsitinib; first compound 0.03162 µM),relative viability (Neratinib + Linsitinib; first compound 0.3162 µM),relative viability (Neratinib + Linsitinib; first compound 1 µM),relative viability (Neratinib + Linsitinib; first compound 0.1 µM)
HCC-366,0.202,0.147,0.158,0.14,0.171,0.337,0.408,0.345,0.381,0.312,0.36,0.324,0.267,0.347,0.404,0.736,0.734,0.759,0.614,
HCC-827,0.273,0.271,0.191,0.153,0.13,0.929,0.975,0.817,0.395,0.205,0.624,0.763,0.665,0.272,0.107,1,0.971,0.931,0.221,0.933
HOP-62,0.323,0.31,0.206,,0.241,0.608,0.691,0.586,,0.72,0.416,0.459,0.367,0.412,0.344,0.864,1.03,1.09,1.07,1.06
IA-LM,,,,,,0.983,1,,0.924,0.715,0.985,0.82,0.715,0.838,0.517,0.537,0.87,0.541,0.628,0.581
LC-2-ad,0.25,0.258,0.274,0.282,0.24,0.662,0.739,0.687,0.664,0.709,0.777,,0.651,0.756,0.785,0.87,0.842,0.673,0.321,0.785
LCLC-97TM1,0.186,0.209,0.138,,0.185,0.985,0.822,0.762,,0.48,0.31,0.437,0.329,,0.234,0.215,0.194,0.161,0.155,0.165
LCLC-103H,0.509,0.489,0.445,0.488,0.484,,0.822,0.72,0.796,0.775,0.63,0.85,0.705,0.726,0.642,1.21,0.975,0.961,0.814,
LK-2,0.318,0.464,0.265,0.221,0.151,0.29,0.37,0.292,0.219,0.271,0.941,0.949,0.747,0.553,0.433,0.464,0.521,0.339,0.214,0.71
LOU-NH91,0.383,0.439,0.426,0.43,0.424,0.936,,0.748,,0.609,0.977,0.944,,0.678,0.632,0.871,0.831,0.504,0.529,0.656
